Results from patent US9388175B2, “2-aniline-4-aryl substituted thiazole derivatives” (Janssen Pharmaceutica N.V., priority 2005, dated 2016).

Target: T1, hα7-wt nAChR stably expressed in the GH4C1 cell line (Homo sapiens, UniProt P36544)
T1 construct: expressed in transfected cells
Assay: Ca2+ flux imaging (FLIPR) of PAM activity with choline as agonist
Assay type: cell-based
Settings: efficacy relative to 100 μM choline alone (defined as 1); peak fluorescence, fluo-4AM; compounds tested 0.1 μM to 30 μM, efficacy criterion at 10 μM
Description: Stable expression in mammalian cells in general and rat GH4C1 cells in particular, of cDNA clones encoding the human α7 wild-type sequence (hα7-wt nAChR) and in which the coding region is placed downstream of a promoter results in the appearance of functional α7 nAChRs on the surface of the mammalian cells. This technique has provided a powerful means of assessing the function of α7 wild-type protein. Given the fact that the cation permeability of the α7 nicotinic receptor preferentially favours calcium, fluorescent imaging of Ca^2+ flux through the hα7-wt nAChR stably expressed in the GH4C1 cell line was used as a first means of assaying modulator activity of the compounds of the present invention.
a) Assay Buffer • Hanks buffered saline solution (HBSS, Invitrogen, Belgium), supplemented with 10 mM HEPES (Invitrogen, Belgium), CaCl2 to a final concentration of 5 mM, 0.1% Bovine serum albumin (Sigma-Aldrich NV, Belgium), 2.5 mM probenecid (Sigma-Aldrich NV, Belgium).
b) Calcium-Sensitive Dye—Fluo-4AM • Fluo-4AM (Molecular Probes, USA) was dissolved in DMSO containing 10% Pluronic acid (Molecular Probes, USA) to give a stock solution which was aliquoted and could be stored at −20° C. until later use. On the day of the experiment Fluo-4AM stock was defrosted and diluted in DMEM/F12 (Invitrogen, Belgium) containing 2.5 mM probenicid and 0.1% BSA to give a final concentration of 2 μM.
c) 96-well Plates • BD Biocoat poly-D-lysine 96-well black/clear bottom plates (BD Biosciences, Belgium)
d) Calcium Flux Measurement • A Fluorimetric Imaging Plate Reader (FLIPR, Molecular Devices Corporation, Sunnyvale, USA) was used to measure intracellular free-calcium flux signals
Monolayers of hα7-wt nAChR-expressing cells were grown in multi-well plates, in particular black-sided, transparent bottomed 96 well plates coated with poly-D-lysine for 24 hours prior to loading with a fluorescent calcium indicator, in a particular embodiment loading with fluo-3 or fluo-4AM for up to 90 minutes, in an even more particular embodiment loading with fluo-4AM for up to 90 minutes, and in a preferred embodiment loading with fluo-4AM for 60 minutes.
In a particular embodiment, the α7 nicotinic receptor agonist was choline, a more particular embodiment choline applied at a sub-maximal concentration of 100 μM.
A control response to choline was calculated on each plate from the difference in peak fluorescence in wells receiving either choline or assay buffer alone. Compounds of the present invention were tested at a concentration range from 0.1 μM to 30 μM.
The activity ranges are defined as follows; A denotes an activity range from 1.1 till 1.5, B denotes an activity range from 1.5 till 2.0, C denotes an activity range from 2.0 till 3.0, D denotes an activity range from 3.0 till 4.5 and E denotes an efficacy from at least 4.5.

T1 sequence (P36544 23-502): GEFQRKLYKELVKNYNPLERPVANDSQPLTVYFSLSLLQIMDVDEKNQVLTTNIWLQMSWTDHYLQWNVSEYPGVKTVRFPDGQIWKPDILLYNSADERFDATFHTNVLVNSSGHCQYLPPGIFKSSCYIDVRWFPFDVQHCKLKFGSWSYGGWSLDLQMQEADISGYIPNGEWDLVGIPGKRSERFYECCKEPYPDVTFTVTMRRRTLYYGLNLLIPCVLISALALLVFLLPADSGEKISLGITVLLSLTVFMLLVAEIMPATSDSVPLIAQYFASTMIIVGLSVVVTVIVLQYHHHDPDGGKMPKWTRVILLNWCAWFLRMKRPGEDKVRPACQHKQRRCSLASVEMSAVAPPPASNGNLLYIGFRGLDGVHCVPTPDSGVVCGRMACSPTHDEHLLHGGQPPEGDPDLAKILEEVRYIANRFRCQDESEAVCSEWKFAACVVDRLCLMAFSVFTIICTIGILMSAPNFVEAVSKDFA

`Cc1cc(Nc2nc(-c3cccnc3)cs2)ccc1F` [Compound 78] was tested. Which “Activity Range” value did it give?
The value was “B (B denotes an activity range from 1.5 till 2.0)”.

How did the “Activity Range” value turn out when `Fc1cccc(-c2csc(Nc3ccc(F)c(C(F)(F)F)c3)n2)c1` [Compound 79] was run?
Its value is “B (B denotes an activity range from 1.5 till 2.0)”.

Which “Activity Range” value does the source give for `Fc1sc(Nc2cccc(C(F)(F)F)c2)nc1-c1cnc2ccccn12` [Compound 80] here?
The value was “C (C denotes an activity range from 2.0 till 3.0)”.

`Fc1ccc(Nc2nc(-c3cccnc3)c(F)s2)cc1C(F)(F)F` [Compound 81] was tested. Which “Activity Range” value did it give?
The value was “C (C denotes an activity range from 2.0 till 3.0)”.

How did the “Activity Range” value turn out when `Cc1cccc(Nc2nc(-c3cnc4ccccn34)c(F)s2)c1` [Compound 82] was run?
Its value is “B (B denotes an activity range from 1.5 till 2.0)”.

`Cc1cc(Nc2nc(-c3cccnc3)c(F)s2)ccc1F` [Compound 83] was tested. Which “Activity Range” value did it give?
Its value is “C (C denotes an activity range from 2.0 till 3.0)”.

How did the “Activity Range” value turn out when `Fc1ccc(Nc2nc(-c3cccnc3)c(Br)s2)cc1C(F)(F)F` [Compound 84] was run?
Its value is “C (C denotes an activity range from 2.0 till 3.0)”.

`Cc1sc(Nc2ccc(C(F)(F)F)cc2)nc1-c1cnc2ccccn12` [Compound 85] was tested. Which “Activity Range” value did it give?
Its value is “C (C denotes an activity range from 2.0 till 3.0)”.

How did the “Activity Range” value turn out when `Cc1sc(Nc2ccc(C(F)(F)F)cc2)nc1-c1cccnc1` [Compound 86] was run?
The value was “D (D denotes an activity range from 3.0 till 4.5)”.

With `Cc1sc(Nc2ccc(C(F)(F)F)cc2)nc1-c1cccnc1` [Compound 87] as the compound, how does the “Activity Range” value read?
Its value is “C (C denotes an activity range from 2.0 till 3.0)”.

Which “Activity Range” value does the source give for `Cc1sc(Nc2ccc(Cl)nc2)nc1-c1cccnc1` [Compound 88] here?
The value was “C (C denotes an activity range from 2.0 till 3.0)”.

How did the “Activity Range” value turn out when `OCc1sc(Nc2ccc(F)c(C(F)(F)F)c2)nc1-c1ccncc1` [Compound 89] was run?
The value was “E (E denotes an efficacy from at least 4.5)”.

Which “Activity Range” value does the source give for `Fc1ccc(Nc2nc(-c3cccnc3)c(CN3CCOCC3)s2)cc1C(F)(F)F` [Compound 90, (4-Fluoro-3-trifluoromethyl-phenyl)-(5-morpholin-4-ylmethyl-4-pyridin-3-yl-thiazol-2-yl)-amine] here?
Its value is “C (C denotes an activity range from 2.0 till 3.0)”.

For `OCc1sc(Nc2ccc(F)c(C(F)(F)F)c2)nc1-c1cccnc1` [Compound 91], which “Activity Range” value is on record?
The value was “C (C denotes an activity range from 2.0 till 3.0)”.

Which “Activity Range” value does the source give for `COc1ccc(Nc2nc(-c3ccccc3)c(Br)s2)cc1` [Compound 93] here?
Its value is “E (E denotes an efficacy from at least 4.5)”.

With `Cc1cccc(Nc2nc(-c3cccnc3)c(Cl)s2)c1` [Compound 94] as the compound, how does the “Activity Range” value read?
Its value is “D (D denotes an activity range from 3.0 till 4.5)”.

Which “Activity Range” value does the source give for `COc1ccc(Nc2nc(-c3ccc4c(c3)OCCO4)c(CO)s2)c(OC)c1` [Compound 95, 4-(2,3-dihydro-1,4-benzodioxin-6-yl)-2-[(2,4-dimethoxyphenyl)amino]-5-thiazolemethanol] here?
The value was “E (E denotes an efficacy from at least 4.5)”.

Which “Activity Range” value does the source give for `COc1cc(OC)c(Nc2nc(-c3ccc4c(c3)OCCO4)c(CC(N)=O)s2)cc1Cl` [Compound 96, 2-[(5-chloro-2,4-dimethoxyphenyl)amino]-4-(2,3-dihydro-1,4-benzodioxin-6-yl)-5-thiazoleacetamide] here?
Its value is “E (E denotes an efficacy from at least 4.5)”.

For `CNC(=O)Cc1sc(Nc2cc(Cl)c(OC)cc2OC)nc1-c1ccc2c(c1)OCCO2` [Compound 97, 2-[(5-chloro-2,4-dimethoxyphenyl)amino]-4-(2,3-dihydro-1,4-benzodioxin-6-yl)-N-methyl-5-thiazoleacetamide], which “Activity Range” value is on record?
The value was “E (E denotes an efficacy from at least 4.5)”.

`COCc1sc(Nc2cc(Cl)ccc2Cl)nc1-c1ccccc1` [Compound 98] was tested. Which “Activity Range” value did it give?
Its value is “E (E denotes an efficacy from at least 4.5)”.

With `COc1cc(OC)c(Nc2nc(-c3ccncc3)c(CN3CCCC3)s2)cc1Cl` [Compound 99] as the compound, how does the “Activity Range” value read?
The value was “D (D denotes an activity range from 3.0 till 4.5)”.

How did the “Activity Range” value turn out when `COc1cc(OC)c(Nc2nc(-c3ccncc3)c(CN3CCOCC3)s2)cc1Cl` [Compound 100] was run?
Its value is “D (D denotes an activity range from 3.0 till 4.5)”.

How did the “Activity Range” value turn out when `Cc1sc(Nc2cccc(C(F)(F)F)c2)nc1-c1cccnc1` [Compound 101] was run?
The value was “D (D denotes an activity range from 3.0 till 4.5)”.

`CCCc1nc(Nc2ccc(OC)cc2)sc1C(=O)OCC` [Compound 102] was tested. Which “Activity Range” value did it give?
Its value is “E (E denotes an efficacy from at least 4.5)”.

How did the “Activity Range” value turn out when `COCc1nc(Nc2cccc(C(F)(F)F)c2)sc1C(=O)OC` [Compound 103] was run?
The value was “E (E denotes an efficacy from at least 4.5)”.

`CCOC(=O)c1sc(Nc2ccc(OC)cc2)nc1C1CCCN(C(=O)OCc2ccccc2)C1` (stereo not drawn) [Compound 104] was tested. Which “Activity Range” value did it give?
The value was “E (E denotes an efficacy from at least 4.5)”.

For `CNC(=O)c1sc(Nc2cc(Cl)c(OC)cc2OC)nc1-c1ccncc1` [Compound 105], which “Activity Range” value is on record?
The value was “E (E denotes an efficacy from at least 4.5)”.

For `COCCNC(=O)Cc1sc(Nc2cc(Cl)ccc2Cl)nc1-c1ccncc1` [Compound 106, 2-[(2,5-dichlorophenyl)amino]-N-(2-methoxyethyl)-4-(4-pyridinyl)-5-thiazoleacetamide], which “Activity Range” value is on record?
The value was “E (E denotes an efficacy from at least 4.5)”.

With `CNC(=O)c1sc(Nc2cc(Cl)c(OC)cc2OC)nc1-c1ccc(F)c(F)c1` [Compound 107, 2-[(5-chloro-2,4-dimethoxyphenyl)amino]-4-(3,4-difluorophenyl)-N-methyl-5-thiazolecarboxamide] as the compound, how does the “Activity Range” value read?
Its value is “E (E denotes an efficacy from at least 4.5)”.

Which “Activity Range” value does the source give for `Cc1cc(C(=O)NCc2sc(Nc3cccc(C(F)(F)F)c3)nc2-c2cccnc2)no1` [Compound 108, 5-methyl-N-[[4-(3-pyridinyl)-2-[[3-(trifluoromethyl)phenyl]amino]-5-thiazolyl]methyl]-3-isoxazolecarboxamide] here?
The value was “E (E denotes an efficacy from at least 4.5)”.

How did the “Activity Range” value turn out when `CC(=O)c1sc(Nc2cc(Cl)ccc2Cl)nc1C` [Compound 110] was run?
The value was “E (E denotes an efficacy from at least 4.5)”.

Which “Activity Range” value does the source give for `CNC(=O)CCc1sc(Nc2ccc(OC)cc2)nc1-c1ccnc(Cl)c1` [Compound 111] here?
The value was “E (E denotes an efficacy from at least 4.5)”.

With `CC(C)c1nc(Nc2cccc(C(F)(F)F)c2)sc1CO` [Compound 116] as the compound, how does the “Activity Range” value read?
Its value is “E (E denotes an efficacy from at least 4.5)”.

With `CCCc1nc(Nc2cccc(C(F)(F)F)c2)sc1CO` [Compound 117] as the compound, how does the “Activity Range” value read?
The value was “E (E denotes an efficacy from at least 4.5)”.

How did the “Activity Range” value turn out when `COc1ccc(Nc2nc(C(F)(F)F)c(CO)s2)cc1` [Compound 118] was run?
The value was “E (E denotes an efficacy from at least 4.5)”.

With `OCc1sc(Nc2cccc(C(F)(F)F)c2)nc1C(F)(F)F` [Compound 119] as the compound, how does the “Activity Range” value read?
Its value is “E (E denotes an efficacy from at least 4.5)”.

For `Cc1ccc(Nc2nc(-c3cccnc3)c(F)s2)cc1` [Compound 120], which “Activity Range” value is on record?
Its value is “C (C denotes an activity range from 2.0 till 3.0)”.

How did the “Activity Range” value turn out when `COc1ccc(Nc2nc(-c3ccncc3)c(CO)s2)c(OC)c1` [Compound 123] was run?
Its value is “D (D denotes an activity range from 3.0 till 4.5)”.

For `Cc1ccc(Nc2nc(-c3cncc(Br)c3)c(CO)s2)cn1` [Compound 125], which “Activity Range” value is on record?
The value was “E (E denotes an efficacy from at least 4.5)”.

Which “Activity Range” value does the source give for `COc1ccc(Nc2nc(-c3cc(Cl)c(OC)cc3OC)c(CO)s2)c(OC)c1` [Compound 126] here?
Its value is “E (E denotes an efficacy from at least 4.5)”.

Which “Activity Range” value does the source give for `COc1ccc(Nc2nc(-c3ccccc3)c(CO)s2)cc1` [Compound 127] here?
The value was “E (E denotes an efficacy from at least 4.5)”.

How did the “Activity Range” value turn out when `Cc1cncc(-c2nc(Nc3cccc(Cl)c3Cl)sc2CO)c1` [Compound 128] was run?
Its value is “E (E denotes an efficacy from at least 4.5)”.

How did the “Activity Range” value turn out when `Cc1ccc(-c2nc(Nc3cccc(C(F)(F)F)c3)sc2CO)cn1` [Compound 129] was run?
Its value is “E (E denotes an efficacy from at least 4.5)”.

`COc1cc(OC)c(Nc2nc(-c3ccc(F)c(F)c3)c(CC(N)=O)s2)cc1Cl` [Compound 130] was tested. Which “Activity Range” value did it give?
The value was “E (E denotes an efficacy from at least 4.5)”.

`CNC(=O)Cc1sc(Nc2cccc(C(F)(F)F)c2)nc1-c1ccccc1` [Compound 131] was tested. Which “Activity Range” value did it give?
Its value is “E (E denotes an efficacy from at least 4.5)”.

With `COc1cc(OC)c(Nc2nc(-c3ccc(F)c(F)c3)c(CC(=O)N3CCCC3)s2)cc1Cl` [Compound 132] as the compound, how does the “Activity Range” value read?
The value was “E (E denotes an efficacy from at least 4.5)”.

How did the “Activity Range” value turn out when `COc1cc(OC)c(Nc2nc(-c3ccc4c(c3)OCCO4)c(CC(=O)N3CCCC3)s2)cc1Cl` [Compound 133] was run?
Its value is “E (E denotes an efficacy from at least 4.5)”.

`CNC(=O)Cc1sc(Nc2cc(Cl)c(OC)cc2OC)nc1-c1ccc(F)c(F)c1` [Compound 134] was tested. Which “Activity Range” value did it give?
Its value is “E (E denotes an efficacy from at least 4.5)”.
